In PubChem BioAssay AID330 (DTP/NCI, 2004):
Inconclusive results and toxic doses are left out. How the source made its calls: active means survival T/C of 150% or more; inactive means T/C below 125% in these data.

Tested on: P388 leukemia ip, CD2F1 mice, survival T/C
Test: NCI In Vivo Anticancer Drug Screen. Data for tumor model P388 Leukemia (intraperitoneal) in CD2F1 (CDF1) mice
Settings: endpoint: median survival time, higher = longer survival
In short: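 Mice carrying the transplanted tumor received test compound or vehicle. Survival was recorded in each group, and the value is the treated-group measurement divided by that of the vehicle-treated control group.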

[1] = dose: 60.0 mg/kg/injection, schedule: Q01DX005 (ip), vehicle: Klucel (hydroxypropylcellulose) (HPC)
[2] = dose: 120.0 mg/kg/injection, schedule: Q01DX005 (ip), vehicle: Klucel (hydroxypropylcellulose) (HPC)
[3] = dose: 240.0 mg/kg/injection, schedule: Q01DX005 (ip), vehicle: Klucel (hydroxypropylcellulose) (HPC)
[4] = dose: 50.0 mg/kg/injection, schedule: Q01DX005 (ip), vehicle: saline with Tween-80
[5] = dose: 50.0 mg/kg/injection, schedule: Q01DX005 (ip), vehicle: Klucel (hydroxypropylcellulose) (HPC)
[6] = dose: 100.0 mg/kg/injection, schedule: Q01DX005 (ip), vehicle: Klucel (hydroxypropylcellulose) (HPC)
[7] = dose: 200.0 mg/kg/injection, schedule: Q01DX005 (ip), vehicle: Klucel (hydroxypropylcellulose) (HPC)

Measured: T/C

CN(C)CCN1C(=O)Cc2ccccc2C1=O
inactive: dose: 12.5 mg/kg/injection, schedule: Q01DX001 (ip), vehicle: saline 111 % of control | dose: 25.0 mg/kg/injection, schedule: Q01DX001 (ip), vehicle: saline 109 % of control | dose: 50.0 mg/kg/injection, schedule: Q01DX001 (ip), vehicle: saline 101 % of control

Cn1c(=O)c2c(nc([N+](=O)[O-])n2C)n(C)c1=O
inactive: dose: 100.0 mg/kg/injection, schedule: Q04DX003 (ip), vehicle: saline 104 % of control | dose: 200.0 mg/kg/injection, schedule: Q04DX003 (ip), vehicle: saline 100 % of control

C=CCSc1n[nH]c(-c2cccs2)n1
inactive: dose: 30.0 mg/kg/injection, schedule: Q01DX005 (ip), vehicle: Klucel (hydroxypropylcellulose) (HPC) 104 % of control | [1] 109 % of control | [2] 109 % of control | [3] 109 % of control

C=CC(C)(CCC=C(C)C)N=C=O (stereo not drawn)
inactive: dose: 12.5 mg/kg/injection, schedule: Q01DX009 (ip), vehicle: distilled water + Tween-80 100 % of control | dose: 25.0 mg/kg/injection, schedule: Q01DX009 (ip), vehicle: distilled water + Tween-80 91 % of control | dose: 50.0 mg/kg/injection, schedule: Q01DX009 (ip), vehicle: distilled water + Tween-80 105 % of control | dose: 100.0 mg/kg/injection, schedule: Q01DX009 (ip), vehicle: distilled water + Tween-80 114 % of control | dose: 200.0 mg/kg/injection, schedule: Q01DX009 (ip), vehicle: distilled water + Tween-80 108 % of control

COc1ccc2c3c1OC1C(O)C=CC4C(C2O)N(C)CCC341 (stereo not drawn)
inactive: dose: 50.0 mg/kg/injection, schedule: Q01DX005 (ip), vehicle: saline + Tween-80 + alcohol 100 % of control | dose: 100.0 mg/kg/injection, schedule: Q01DX005 (ip), vehicle: saline + Tween-80 + alcohol 100 % of control | dose: 200.0 mg/kg/injection, schedule: Q01DX005 (ip), vehicle: saline + Tween-80 + alcohol 100 % of control

Cn1c2ccccc2c(=O)c2cc(NC(=O)CCCCCCCC(=O)Nc3ccc4c(c3)c(=O)c3ccccc3n4C)ccc21
inactive: [4] 92 % of control | dose: 100.0 mg/kg/injection, schedule: Q01DX005 (ip), vehicle: saline with Tween-80 97 % of control | dose: 200.0 mg/kg/injection, schedule: Q01DX005 (ip), vehicle: saline with Tween-80 101 % of control

CSCCCCN=[N+]=[N-]
inactive: dose: 60.0 mg/kg/injection, schedule: Q01DX005 (ip), vehicle: saline 104 % of control | dose: 120.0 mg/kg/injection, schedule: Q01DX005 (ip), vehicle: saline 112 % of control

CC(=O)/C(=C\c1ccc([N+](=O)[O-])o1)C(=O)CCN(C)C
inactive: dose: 7.5 mg/kg/injection, schedule: Q01DX005 (ip), vehicle: Klucel (hydroxypropylcellulose) (HPC) 97 % of control | dose: 15.0 mg/kg/injection, schedule: Q01DX005 (ip), vehicle: Klucel (hydroxypropylcellulose) (HPC) 107 % of control

Cn1c2c(c(=O)n(C)c1=O)Cc1cc(CC(=O)O)ccc1N2
inactive: dose: 100.0 mg/kg/injection, schedule: Q01DX001 (ip), vehicle: saline with Tween-80 99 % of control | dose: 200.0 mg/kg/injection, schedule: Q01DX001 (ip), vehicle: saline with Tween-80 97 % of control | dose: 400.0 mg/kg/injection, schedule: Q01DX001 (ip), vehicle: saline with Tween-80 96 % of control

Cc1cc([O-])c([I+]c2ccccc2)c(=O)[nH]1
inactive: [5] 103 % of control | [6] 110 % of control | [7] 102 % of control

Cc1ccc(NCCN2CCC(C3CCN(CCNc4ccc(C)c5sc6ccccc6c(=O)c45)CC3)CC2)c2c(=O)c3ccccc3sc12
inactive: dose: 6.25 mg/kg/injection, schedule: Q01DX005 (ip), vehicle: saline with Tween-80 90 % of control | dose: 12.5 mg/kg/injection, schedule: Q01DX005 (ip), vehicle: saline with Tween-80 97 % of control | dose: 25.0 mg/kg/injection, schedule: Q01DX005 (ip), vehicle: saline with Tween-80 95 % of control | [4] 94 % of control

C=C(C)C(O)C(O)c1cc2ccc(=O)oc2cc1OC (stereo not drawn)
inactive: dose: 12.5 mg/kg/injection, schedule: Q01DX009 (ip), vehicle: saline with Tween-80 99 % of control | dose: 25.0 mg/kg/injection, schedule: Q01DX009 (ip), vehicle: saline with Tween-80 99 % of control | dose: 50.0 mg/kg/injection, schedule: Q01DX009 (ip), vehicle: saline with Tween-80 99 % of control | dose: 100.0 mg/kg/injection, schedule: Q01DX009 (ip), vehicle: saline with Tween-80 107 % of control

O=C(N/N=C/c1cc(Br)cc(Br)c1[O-])c1ccccc1.O=C(N/N=C/c1cc(Br)cc(Br)c1[O-])c1ccccc1.[Cu+2]
inactive: dose: 12.5 mg/kg/injection, schedule: Q01DX001 (ip), vehicle: saline with Tween-80 91 % of control | dose: 25.0 mg/kg/injection, schedule: Q01DX001 (ip), vehicle: saline with Tween-80 89 % of control | dose: 50.0 mg/kg/injection, schedule: Q01DX001 (ip), vehicle: saline with Tween-80 100 % of control

COc1ccc(C(=O)CC(C(=O)O)c2ccc(OC)c(OC)c2)cc1OC (stereo not drawn)
inactive: dose: 100.0 mg/kg/injection, schedule: Q04DX003 (ip), vehicle: saline with Tween-80 90 % of control | dose: 200.0 mg/kg/injection, schedule: Q04DX003 (ip), vehicle: saline with Tween-80 86 % of control | dose: 400.0 mg/kg/injection, schedule: Q04DX003 (ip), vehicle: saline with Tween-80 86 % of control

CCCCCCC1NC1Cc1ccccc1 (stereo not drawn)
inactive: dose: 4.5 mg/kg/injection, schedule: Q01DX009 (ip), vehicle: saline with Tween-80 115 % of control | dose: 9.0 mg/kg/injection, schedule: Q01DX009 (ip), vehicle: saline with Tween-80 111 % of control | dose: 18.0 mg/kg/injection, schedule: Q01DX009 (ip), vehicle: saline with Tween-80 110 % of control

COC(=O)CC[C@@H]1C(C)=CC(=O)[C@@]2(F)[C@H]1CCC1=CC(=O)C=C[C@@]12C
inactive: [5] 108 % of control | [6] 100 % of control | [7] 109 % of control

O/N=C/C(=NCc1ccccn1)NO
inactive: [1] 107 % of control | [2] 103 % of control | [3] 103 % of control
